Laboratory results as given in patent US20260070902A1, “SULFONYL DERIVATIVES AS CCR6 INHIBITORS” (Hoffmann-La Roche Inc., priority 2022, published 2026).
pIC50: −log10 of the molar value.

biological target: T1, human CCR6 (Homo sapiens, UniProt P51684); assay: Human CCR6-CRE reporter assay; type: cell-based; parameters: The second construct contained the open reading frame of human CCR6 in the pUNO1 backbone; host or cells: 293FT cells; details: relative -Log IC50; 293FT cells transfected with human CCR6 and CRE-luciferase reporter; 6 μM Forskolin, 6 nM CCL20; 5 h
T1 sequence (P51684 1-374): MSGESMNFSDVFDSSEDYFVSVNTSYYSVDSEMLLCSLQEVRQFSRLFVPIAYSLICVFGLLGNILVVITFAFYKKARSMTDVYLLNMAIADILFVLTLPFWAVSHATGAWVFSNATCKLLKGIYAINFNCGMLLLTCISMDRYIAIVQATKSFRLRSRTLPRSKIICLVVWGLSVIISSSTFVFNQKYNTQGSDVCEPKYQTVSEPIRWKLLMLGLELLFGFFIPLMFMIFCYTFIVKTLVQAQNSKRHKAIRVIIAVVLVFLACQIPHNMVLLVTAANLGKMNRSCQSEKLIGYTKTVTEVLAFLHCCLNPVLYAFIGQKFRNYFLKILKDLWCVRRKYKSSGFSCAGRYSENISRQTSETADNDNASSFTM
Experimental: Human CCR6-CRE Reporter Assay
293FT cells were transfected with 2 constructs using TransIT-293 (Mirus). The first construct (pGL4.29, Promega) expressed the luciferase reporter gene luc2P in response to the binding of cAMP-induced CREB to the CREelement in its promoter. The second construct contained the open reading frame of human CCR6 in the pUNO1 backbone under the control of an enhanced CMV promoter (InVivoGen). 48 h after transfection, cells were harvested and diluted to 750,000 cells/ml in culture medium (DMEM, 10% FBS, 1× pen/strep (Gibco 15140)). Compounds were 2.5-fold serially diluted in DMSO. Further dilutions were made in assay medium (DMEM, 10% FBS, 1× pen/strep, 6 μM Forskolin, 6 nM CCL20). 4 μl of the compound solution was added to a white MW384 plate, followed by 20 μl of the cell suspension. Final DMSO concentration in the assay was 0.1%. The MW384 plate was placed in an incubator at 37° C., 5% CO2 for 5 h. Luciferase activity was determined by addition of 24 μl of a 2.5× diluted BriteLite luciferase solution (Perkin Elmer), followed by luminescence measurement using a VICTOR Plate reader (Perkin Elmer). […] The relative −Log IC50 was determined with GraphPad Prism 9 using a four-parameter dose-response model.

In order of falling pIC50:
1. Cc1cc(-c2ccc(S(=O)(=O)[C@H]3CC[C@H](Nc4ccc(S(F)(F)(F)(F)F)cc4)CC3)cc2)cn2ccnc12 [Example 149, 4-(pentafluoro-λ^6-sulfanyl)-N-[trans-4-(4-{8-methylimidazo[1,2-a]pyridin-6-yl}benzenesulfonyl)cyclohexyl]aniline]  7.20
2. CC(C)NC(=O)c1cccc(-c2ccc(S(=O)(=O)[C@H]3CC[C@H](Nc4ccc(S(F)(F)(F)(F)F)cc4)CC3)cc2)c1 [Example 141, N-(propan-2-yl)-4′-{[trans-4-{[4-(pentafluoro-λ^6-sulfanyl)phenyl]amino}cyclohexyl]sulfonyl}-[1,1′-biphenyl]-3-carboxamide]  7.10
3. CC(C)c1nnc2ccc(-c3ccc(S(=N)(=O)[C@H]4CC[C@H](Nc5ccc(S(F)(F)(F)(F)F)cn5)CC4)cc3)cn12 (stereo partly drawn) [Example 171, {4-[3-(propan-2-yl)-[1,2,4]triazolo[4,3-a]pyridin-6-yl]phenyl}[trans-4-{[5-(pentafluoro-λ^6-sulfanyl)pyridin-2-yl]amino}cyclohexyl](imino)-λ^6-sulfanone]  7.00
4. CN(C)c1cnc2ccc(-c3ccc(S(=O)(=O)[C@H]4CC[C@H](Nc5ccc(S(F)(F)(F)(F)F)cc5)CC4)cc3)cn12 [Example 143, N,N-dimethyl-6-(4-{[trans-4-{[4-(pentafluoro-λ^6-sulfanyl)phenyl]amino}cyclohexyl]sulfonyl}phenyl)imidazo[1,2-a]pyridin-3-amine]  7.00
5. N=S(=O)(c1ccc(-c2ccn3ccnc3c2)cc1)[C@H]1CC[C@H](Nc2ccc(S(F)(F)(F)(F)F)cc2)CC1 (stereo partly drawn) [Example 93, (4-{imidazo[1,2-a]pyridin-7-yl}phenyl)[trans-4-{[4-(pentafluoro-λ^6-sulfanyl)phenyl]Amino}cyclohexyl](imino)-λ^6-sulfanone]  6.40
6. N=S(=O)(c1ccc(-c2ccc3c(c2)C(=O)NC3)cc1)[C@H]1CC[C@H](Nc2ccc(S(F)(F)(F)(F)F)cc2)CC1 (stereo partly drawn) [Example 115, 6-(4-{[trans-4-{[4-(pentafluoro-λ^6-sulfanyl)phenyl]Amino}cyclohexyl]sulfonimidoyl}phenyl)-2,3-dihydro-1H-isoindol-1-one]  6.40
7. N=S(=O)(c1ccc(-c2ccc(C(N)=O)nc2)cc1)[C@H]1CC[C@H](Nc2ccc(S(F)(F)(F)(F)F)cc2)CC1 (stereo partly drawn) [Example 108, 5-(4-{[trans-4-{[4-(pentafluoro-λ^6-sulfanyl)phenyl]Amino}cyclohexyl]sulfonimidoyl}phenyl)pyridine-2-carboxamide]  6.30
8. N=S(=O)(c1ccc(-c2ccc3nccn3c2)cc1)[C@H]1CC[C@@H](Nc2ccc(S(F)(F)(F)(F)F)cc2)CC1 (stereo partly drawn) [Example 88, (4-{imidazo[1,2-a]pyridin-6-yl}phenyl)[cis-4-{[4-(pentafluoro-λ^6-sulfanyl)phenyl]Amino}cyclohexyl](imino)-λ^6-sulfanone]  6.10
9. CN(C)C(=O)c1ccc(-c2ccc(S(=N)(=O)[C@H]3CC[C@H](Nc4ccc(S(F)(F)(F)(F)F)cc4)CC3)cc2)cn1 (stereo partly drawn) [Example 100, N,N-dimethyl-5-(4-{[trans-4-{[4-(pentafluoro-λ^6-sulfanyl)phenyl]Amino}cyclohexyl]sulfonimidoyl}phenyl)pyridine-2-carboxamide]  6.10
10. N#Cc1cnc2ccc(-c3ccc(S(=O)(=O)N4CCC(Nc5ccc(S(F)(F)(F)(F)F)cc5)CC4)cc3F)cn12 [Example 71, 6-{2-fluoro-4-[(4-{[4-(pentafluoro-λ^6-sulfanyl)phenyl]Amino}piperidin-1-yl)sulfonyl]phenyl}imidazo[1,2-a]pyridine-3-carbonitrile]  6.00
11. CN(C)C(=O)c1ccc(-c2ccc(S(=O)(=O)[C@H]3CC[C@@H](Nc4ccc(S(F)(F)(F)(F)F)cc4)CC3)cc2)nc1 [Example 45, N,N-dimethyl-6-(4-{[cis-4-{[4-(pentafluoro-λ^6-sulfanyl)phenyl]Amino}cyclohexyl]sulfonyl}phenyl)pyridine-3-carboxamide]  5.80
